Measurements taken from patent US4119635A, “Substituted 1,2,4-triazole derivatives” (Gruppo Lepetit S.p.A., priority 1971, dated 1978).
Read-outs that look alike come from different tables or passages of the source.

Experiments:
mice [1] = test: Spontaneous activity (S. Irwin scheme); assay type: in vivo; conditions: Mus musculus, ip, read-out: Decrease of spontaneous activity ED50
From the text: (§1) As stated before, the compounds of the invention have CNS depressant utility. More exactly, the compounds of Examples 1,2,3,5-10, 14, 31(42), 32(56), 34, 35 and 45(55) are useful as sedatives and hypnotics. These pharmacological properties were ascertained by following the operative scheme and the manipulation procedure described by S. Irwin in Psychopharmacologia (Berl.), 13, 222, 1968. Especially, there were studied the biological effects of the compounds on two of the parameters which are closely related to the above properties, namely the "spontaneous activity" and the "righting reflex". The effects of the compounds on these two parameters were expressed as ED50 values ie., the amount of compound tested which reduces the spontaneous activity and righting reflex scores of test animals to 50% of those of the controls. The scores are the same as those reported by S. Irwin in the cited paper. For each compound it was also determined the minimal dosis which produces complete hypnosis of the test animals (MHD).
(§2) The obtained results are summarized in the following table, which also reports the toxicities of the tested substances, expressed as LD50 values. For comparison purposes, also the activity of two known compounds was determined. The known compounds are 1-methyl-3,5-diphenyl-1,2,4-triazole (Compound A, Atkinson et al. Journ. Chem. Soc., 1954, 141, 1954) and 1-methyl-3-phenyl-5-(p-chlorophenyl)-1,2,4-triazole (Compound B, Huisgen et al., Journ. Org. Chem., 24, 892, 1959).

mice [2] = test: Righting reflex (S. Irwin scheme); assay type: in vivo; conditions: Mus musculus, ip, read-out: Impairment of righting reflex ED50
From the text: as §1, §2

mice [3] = test: Minimal dosis which produces complete hypnosis (MHD); assay type: in vivo; conditions: Mus musculus, ip, read-out: Minimal hypnotic dosis
From the text: as §1

Toxicity (LD50) = conditions: mouse, in vivo, ip
Procedure: as §2

rats = test: Secondary response avoidance test (G. Maffii), antianxiety effect; assay type: in vivo; conditions: 20 mg/kg i.p.
Procedure: The compounds of Examples 34 and 45(55) are also useful as anxiety relieving means. This property was investigated on the basis of the secondary response avoidance test, which was performed as described by G. Maffii, Journ. Pharm. Pharmacol., 11, 192, 1959.

[4] = mice, dose reducing score to 50% of controls

SMILES | ED50 (mice [1]) [mg/kg] | ED50 (mice [2]) [mg/kg] | minimal effective dose (mice [3]; mice, complete hypnosis) [mg/kg] | LD50 (Toxicity (LD50); mice, read-out: Toxicity LD50) [mg/kg] | antianxiety effect (rats) | minimal effective dose (mice [3]) [mg/kg] | ED50 (mice [1]; [4]) [mg/kg] | ED50 (mice [2]; [4]) [mg/kg] | LD50 (Toxicity (LD50)) [mg/kg]
Cc1ccccc1-c1nc(-c2ccccc2)nn1C [31(42), 1-Methyl-5-(o-tolyl)-3-phenyl-1,2,4-triazole] | 60 | 50 | 300 | > 1000 |  |  |  |  | 
Cc1cccc(-c2nc(-c3ccccc3C)n(C)n2)c1 [32(56), 1-Methyl-3-(m-tolyl)-5-(o-tolyl)-1,2,4-triazole] | 30 | 20 | 200 | > 1000 |  |  |  |  | 
Cc1ccccc1-c1nc(-c2cccc(Cl)c2)nn1C [45(55), 1-Methyl-3-(3-chlorophenyl)-5-(o-tolyl)-1,2,4-triazole] | 30 | 50 | 300 | 700 | remarkable antianxiety effect |  |  |  | 
Cn1nc(-c2ccccc2)nc1-c1ccccc1 [Compound A, 1-methyl-3,5-diphenyl-1,2,4-triazole, reference compound] | > 100 | 300 |  | 1000 |  | > 1000 |  |  | 
Cn1nc(-c2ccccc2)nc1-c1ccc(Cl)cc1 [Compound B, 1-methyl-3-phenyl-5-(p-chlorophenyl)-1,2,4-triazole, reference compound] |  |  | > 600 | > 1000 |  |  | > 300 | > 300 | 
Cn1nc(-c2ccccc2)nc1-c1ccccc1CO [Example 1, 5-(2-Hydroxymethylphenyl)-1-methyl-3-phenyl-1,2,4-triazole] |  |  | 300 | 1000 |  |  | 60 | 100 | 
Cn1nc(-c2ccccc2Cl)nc1-c1ccccc1CO [Example 2] | 60 | 60 | 300 | 500 |  |  |  |  | 
Cn1nc(-c2cccc(Cl)c2)nc1-c1ccccc1CO [Example 3] | 30 | 10 | 200 | 500 |  |  |  |  | 
Cn1nc(-c2cccc(F)c2)nc1-c1ccccc1CO [Example 5] | 30 | 50 | 150 | 400 |  |  |  |  | 
Cc1ccccc1-c1nc(-c2ccccc2CO)n(C)n1 [Example 6, 1-methyl-3-(o-tolyl)-5-(2-hydroxymethylphenyl)-1,2,4-triazole] | 50 | 25 | 600 | 1000 |  |  |  |  | 
Cc1cccc(-c2nc(-c3ccccc3CO)n(C)n2)c1 [Example 7] |  |  | 80 |  |  |  | 30 | 20 | 500
Cc1ccc(-c2nc(-c3ccccc3CO)n(C)n2)cc1 [Example 8] |  |  | 600 |  |  |  | 80 | 100 | > 1000
COc1cccc(-c2nc(-c3ccccc3CO)n(C)n2)c1 [Example 9] |  |  | 300 |  |  |  | 60 | 60 | 1000
Cn1nc(-c2cccc([N+](=O)[O-])c2)nc1-c1ccccc1CO [Example 10, 1-methyl-3-(3-nitrophenyl)-5-(2-hydroxymethylphenyl)-1,2,4-triazole] |  |  | 300 | 1000 |  |  | 60 | 40 | 
Cn1nc(-c2ccc3c(c2)OCO3)nc1-c1ccccc1CO [Example 14] |  |  | 300 |  |  |  | 80 | 80 | > 1000
Cc1ccccc1-c1nc(-c2cccc(N)c2)nn1C [Example 34, 1-Methyl-3-(3-aminophenyl)-5-(o-tolyl)-1,2,4-triazole] | 30 | 20 | 60 | 200 | remarkable antianxiety effect |  |  |  | 
COc1cccc(-c2nc(-c3ccccc3C)n(C)n2)c1 [Example 35, 1-Methyl-3-(3-methoxyphenyl)-5-(o-tolyl)-1,2,4-triazole] | 60 | 50 | 300 | 1000 |  |  |  |  | 
